The values that follow come from US20230184744A1, “INTERTUMORAL HOMOGENEITY DETERMINED BY MiCK ASSAY” (Pierian Biosciences, LLC, priority 2014, published 2023).

The subject of experiment [1] is NSCLC, multi-focal, recurrent adenocarcinoma (site B). The experiment can be described thus: MiCK assay, drug-induced apoptosis, Table 3 tumor C2. In kind it is cell-based, human. The following applies: Table 3 tumor C2: NSCLC, multi-focal, recurrent adenocarcinoma (site B); 48 hours with drug. From the text:
(§1) Data were obtained optically using Mie light-scattering.
(§2) Do a test well. […] Look at the well under the inverted microscope. […] Repeat until optimal cell concentration is found. Plate the cells into the wells.

In experiment [2] the test system is NSCLC, multi-focal adenocarcinoma (site A). Kind of experiment: MiCK assay, drug-induced apoptosis, Table 3 tumor E1. The following applies: Table 3 tumor E1: NSCLC, multi-focal adenocarcinoma (site A); 48 hours with drug. In kind it is cell-based, human.
Text: as §1, §2

Experiment [3] deals with NSCLC, multi-focal, recurrent adenocarcinoma (lymph node). The experiment can be described thus: MiCK assay, drug-induced apoptosis, Table 3 tumor D2. Type of experiment: cell-based, human. The following applies: Table 3 tumor D2: NSCLC, multi-focal, recurrent adenocarcinoma (lymph node); 48 hours with drug.
Text: as §1, §2

In experiment [4] the test system is NSCLC, bilateral well-differentiated adenocarcinoma (site 1B). The experiment can be described thus: MiCK assay, drug-induced apoptosis, Table 3 tumor B2. In kind it is cell-based, human. The following applies: Table 3 tumor B2: NSCLC, bilateral well-differentiated adenocarcinoma (site 1B); 48 hours with drug.
Text: as §1, §2

Experiment [5] has as its system Probable mesothelioma (pleural effusion). Kind of experiment: MiCK assay, drug-induced apoptosis, Table 3 tumor A2. Type of experiment: cell-based, human. The following applies: Table 3 tumor A2: Probable mesothelioma (pleural effusion); 48 hours with drug. Here is the method: as §1
When the optimal cell concentration is reached, put the cells in the plate and incubate overnight in the incubating chamber of the incubator (37° C.).

In experiment [6] the test system is Lung adenocarcinoma (pleural effusion). Kind of experiment: MiCK assay, drug-induced apoptosis, Table 4 tumor B1. In kind it is cell-based, human. The following applies: Table 4 tumor B1: Lung adenocarcinoma (pleural effusion); 48 hours with drug.
Text: as §1
(§3) Patients: Three patients were included in this study. […] Patient A was diagnosed with pancreatic islet cell cancer; sample 1 was collected from lymph node and sample 2 was collected from the primary tumor. Patient B was diagnosed with lung cancer NSCLC adenocarcinoma; sample 1 was collected from pleural effusion and sample 2 was collected from solid tumor. […] Ages of the patients ranged from 51-79 years old with an average age of 65 years. One patient was […] and two were female.

The subject of experiment [7] is NSCLC, bilateral well-differentiated adenocarcinoma (site 1A). Kind of experiment: MiCK assay, drug-induced apoptosis, Table 3 tumor B1. Type of experiment: cell-based, human. The following applies: Table 3 tumor B1: NSCLC, bilateral well-differentiated adenocarcinoma (site 1A); 48 hours with drug.
Text: as §1, §2

Experiment [8] concerns NSCLC, multi-focal adenocarcinoma (site B). Kind of experiment: MiCK assay, drug-induced apoptosis, Table 3 tumor E2. In kind it is cell-based, human. The following applies: Table 3 tumor E2: NSCLC, multi-focal adenocarcinoma (site B); 48 hours with drug.
Text: as §1, §2

The subject of experiment [9] is Pancreatic islet cell cancer (lymph node). Kind of experiment: MiCK assay, drug-induced apoptosis, Table 4 tumor A1. The following applies: Table 4 tumor A1: Pancreatic islet cell cancer (lymph node); 48 hours with drug.
Method: (§4) After overnight incubation, chemotherapy drugs were added to the wells of the 96-well plate in 5 μL aliquots or to the wells of a 384-well plate in 2.5 μL aliquots using an automated pipettor. The number of drugs or drug combinations and the number of concentrations tested depended on the number of viable malignant cells that were isolated from the tumor specimen. The drug concentrations, determined by molarity, were those indicated by the manufacturer as the desired blood level concentration plus or minus one serial dilution if enough cells were available.
(§5) Following drug addition, the plate was incubated for 30 min. at 37° C. in a 5% carbon dioxide humidified atmosphere incubator. Each well was then overlayed with sterile mineral oil, and the plate was placed into the incubator chamber of a microplate spectrophotometric reader. The optical density at 600 nanometers was read and recorded every 5 minutes over a period of 48 hours.
(§6) Patients: Three patients were included in this study. Two tumor samples from different tumor sites were collected from each patient. Both samples from each patient were collected on the same day.
Experiment [10] concerns Pancreatic islet cell cancer (primary tumor). Kind of experiment: MiCK assay, drug-induced apoptosis, Table 4 tumor A2. The following applies: 48 hours with drug.
Method: as §4
(§7) Following drug addition, the plate was incubated for 30 min. at 37° C. in a 5% carbon dioxide humidified atmosphere incubator. Each well was then overlayed with sterile mineral oil, and the plate was placed into the incubator chamber of a microplate spectrophotometric reader. The optical density at 600 nanometers was read and recorded every 5 minutes over a period of 48 hours. Optical density increases, which correlates with apoptosis, were converted to kinetic units (KU) of apoptosis by a proprietary software ProApo with a formula described in the Kravtsov reference incorporated by reference (i.e. Kravtsov V. et al. “Use of the Microculture Kinetic Assay of apoptosis to determine chemosensitivities of leukemias.” Blood 1998; 92:968-980).
(§8) Purified tumor cells were cultured for 48 hours with individual drugs, and drug-induced apoptosis was measured using the MiCK assay as described in Example 1. Data were obtained optically using Mie light-scattering.
The test system of experiment [11] is NSCLC, multi-focal, recurrent adenocarcinoma (right lung). Kind of experiment: MiCK assay, drug-induced apoptosis, Table 3 tumor D1. The following applies: Table 3 tumor D1: NSCLC, multi-focal, recurrent adenocarcinoma (right lung); 48 hours with drug. Type of experiment: cell-based, human.
Text: as §1, §2

Experiment [12] deals with Lung small cell carcinoma (site A). The experiment can be described thus: MiCK assay, drug-induced apoptosis, Table 4 tumor C1. The following applies: Table 4 tumor C1: Lung small cell carcinoma (site A); 48 hours with drug.
Method: as §4, §5, §6
The subject of experiment [13] is Lung adenocarcinoma (site B). The experiment can be described thus: MiCK assay, drug-induced apoptosis, Table 4 tumor C2. The following applies: Table 4 tumor C2: Lung adenocarcinoma (site B); 48 hours with drug.
Method: as §4, §7, §8
For experiment [14], the system named is Lung adenocarcinoma (solid tumor). Kind of experiment: MiCK assay, drug-induced apoptosis, Table 4 tumor B2. In kind it is cell-based, human. The following applies: Table 4 tumor B2: Lung adenocarcinoma (solid tumor); 48 hours with drug.
Text: as §1, §3

Experiment [15] concerns NSCLC, multi-focal, recurrent adenocarcinoma (site A). Kind of experiment: MiCK assay, drug-induced apoptosis, Table 3 tumor C1. Type of experiment: cell-based, human. The following applies: Table 3 tumor C1: NSCLC, multi-focal, recurrent adenocarcinoma (site A); 48 hours with drug.
Text: as §1, §2

The structures appear in SMILES notation.

Take `N.N.O=C([O-])C1(C(=O)[O-])CCC1.[Pt+2]` [Carboplatin]: the “kinetic units (KU) of apoptosis” value is 1.20 KU in experiment [1]; 0.30 KU in experiment [2]; 0.80 KU in experiment [3]; 2.20 KU in [4]; 1.50 KU in experiment [5]; 1.20 KU in [6]. Further, the “kinetic units (KU) of apoptosis” value is 1.90 KU in experiment [7]; 0.30 KU in experiment [8]; 1.08 KU in experiment [9]; 1.48 KU in experiment [10]; 1.00 KU in [11]; 5.30 KU in experiment [12]. Besides, the figures for the “kinetic units (KU) of apoptosis” value in experiment [13], in experiment [14] and in experiment [15] were 2.60 KU, 2.40 KU and 0.40 KU, respectively.

For the compound `N.N.[Cl][Pt][Cl]` [Cisplatin], the “kinetic units (KU) of apoptosis” value in experiment [1] worked out at 2.10 KU; in experiment [2], 0.80 KU; in experiment [3], 1.00 KU; in experiment [4], 2.10 KU; in experiment [5], 2.80 KU; in experiment [6], 2.20 KU. The “kinetic units (KU) of apoptosis” value in experiment [7] is 1.50 KU; in experiment [8] it was 0.50 KU; in experiment [9], 1.31 KU; in [10], 1.75 KU; in experiment [11], 1.00 KU; in [12], 6.40 KU. Further, the entries for the “kinetic units (KU) of apoptosis” value in [13], in experiment [14] and in experiment [15] were 5.40 KU, 2.20 KU and 0.00 KU, respectively.

Turning to `CC(=O)O[C@@]12CO[C@@H]1C[C@H](O)[C@@]1(C)C(=O)[C@H](O)C3=C(C)[C@@H](OC(=O)[C@H](O)[C@@H](NC(=O)OC(C)(C)C)c4ccccc4)C[C@@](O)([C@@H](OC(=O)c4ccccc4)[C@H]21)C3(C)C` [Docetaxel], the “kinetic units (KU) of apoptosis” value was determined as 2.30 KU in experiment [1]; 0.90 KU in [2]; 0.70 KU in experiment [3]; 2.00 KU in experiment [4]; 1.10 KU in [5]; 4.20 KU in [6]. The “kinetic units (KU) of apoptosis” value in experiment [7] worked out at 2.60 KU; in experiment [8] it was 0.20 KU; in experiment [9], 3.20 KU; in [10], 2.65 KU; in experiment [11], 0.50 KU; in [12] it was 3.20 KU. The “kinetic units (KU) of apoptosis” value in experiment [13] came out at 2.10 KU; in experiment [14], 2.40 KU; in [15] it was 0.90 KU.

On to `COc1cccc2c1C(=O)c1c(O)c3c(c(O)c1C2=O)C[C@@](O)(C(=O)CO)C[C@@H]3O[C@H]1C[C@H](N)[C@H](O)[C@H](C)O1` [Doxorubicin], for which the “kinetic units (KU) of apoptosis” value in experiment [1] is listed as 1.50 KU; in [2], 1.60 KU; in [3] it was 1.40 KU; in [4], 0.90 KU; in [5], 3.80 KU; in [6] it was 3.50 KU. Besides, the “kinetic units (KU) of apoptosis” value in experiment [7] was 1.70 KU; in experiment [8] it was 1.50 KU; in experiment [9], 1.27 KU; in experiment [10], 2.06 KU; in [11] it was 1.50 KU; in [12] it was 1.60 KU. The “kinetic units (KU) of apoptosis” value in experiment [13] came to 0.90 KU; in [14] it was 3.50 KU; in experiment [15], 0.80 KU.

`CC(=O)O[C@H]1C(=O)[C@@]2(C)[C@H]([C@H](OC(=O)c3ccccc3)[C@]3(O)C[C@H](OC(=O)[C@H](O)[C@@H](NC(=O)c4ccccc4)c4ccccc4)C(C)=C1C3(C)C)[C@]1(OC(C)=O)CO[C@@H]1C[C@@H]2O` [Paclitaxel]: the “kinetic units (KU) of apoptosis” value in experiment [1] was determined as 1.00 KU; in experiment [2], 0.00 KU; in [3] it was 0.90 KU; in [4] it was 0.90 KU; in experiment [5], 1.40 KU; in experiment [6], 3.00 KU. For the same compound, the “kinetic units (KU) of apoptosis” value worked out at 1.70 KU in experiment [7]; 0.50 KU in experiment [8]; 3.43 KU in experiment [9]; 2.06 KU in [10]; 1.40 KU in [11]; 1.70 KU in experiment [12]. Moreover, the “kinetic units (KU) of apoptosis” value is reported as 3.60 KU in [13], 4.00 KU in experiment [14] and 0.00 KU in [15].

For the compound `CCC1=C[C@@H]2CN(C1)Cc1c([nH]c3ccccc13)[C@@](C(=O)OC)(c1cc3c(cc1OC)N(C)[C@H]1[C@@](O)(C(=O)OC)[C@H](OC(C)=O)[C@]4(CC)C=CCN5CC[C@]31[C@@H]54)C2` [Vinorelbine], the “kinetic units (KU) of apoptosis” value was 0.00 KU in experiment [1]; 0.40 KU in [2]; 1.00 KU in [3]; 1.70 KU in [4]; 2.10 KU in experiment [5]; 3.90 KU in experiment [6]. In addition, the “kinetic units (KU) of apoptosis” value worked out at 1.20 KU in [7]; 0.00 KU in experiment [8]; 1.18 KU in [9]; 0.40 KU in [11]; 3.50 KU in experiment [12]; 2.50 KU in [13]. Further, the “kinetic units (KU) of apoptosis” value in experiment [14] was 2.70 KU; in experiment [15] it was 0.20 KU.
